Assay results as given in US10391160B2, “Dimethyl fumarate and vaccination regimens” (Biogen MA Inc., priority 2014, dated 2019).

Assay: healthy volunteer study of flushing on DMF dosing with aspirin pre-treatment
Assay type: in vivo, human
Details: 325 mg non-enteric coated aspirin 30 minutes prior to DMF dosing; healthy volunteers
Protocol: Subjects receiving a vaccine who experience flushing may be administered (e.g., 30 min. prior to DMF dosing) about 325 mg of aspirin to reduce flushing. Some patients who experience flushing with gastrointestinal side effects may reduce the dose to 120 mg DMF BID temporarily. Within a month, the effective dose of 240 mg DMF BID should be resumed.

CC(=O)Oc1ccccc1C(=O)O [aspirin]
occurrence and severity of flushing: reduce the occurrence and severity of flushing
